Measurements reported in patent US9146240B2, “Systems and methods for determining a C-peptide receptor, C-peptide receptor, and methods of using same” (Saint Louis University, priority 2012, dated 2015).

Molecular target: T1, GPR146 (Homo sapiens, UniProt Q96CH1)
T1 construct: endogenous in cells; host or cells: KATOIII (human stomach carcinoma)
Experiment: C-peptide-induced cFos expression in KATOIII cells after siRNA transfection
Type: cell-based
Conditions: 1 nmole C-peptide, 1 hour
Description: Once the hierarchical candidates were identified and ranked, KATOIII cells were then transfected with siRNA (Integrated DNA technologies) (111) directed against either GPR107 (control), GPR146 (most likely candidate not yet tested) or eGFP (green fluorescent protein—control) using Lipofectamine […] (Invitrogen). Five hours later, the media was changed to serum free control media (ATCC) and the serum was starved overnight. Twenty-four (24) hours after transfection with siRNA, cells were treated with 1 nmole C-peptide (Phoenix Pharmaceuticals) for 1 hour, then lysed and RNA were isolated using an RNeasy Kit (Qiagen). RNA was used as a template from the production of cDNA, and changes in cFos expression were determined using RT-PCR (BioRad 2x iQ SyberGreen Master Mix, using a BioRad CFX real time system). […] As this produced the desired negative response (113), GPR146 was the target GPCR (115). The receptiveness of GPR146 to C-peptide has since been verified by additional conventional tests

T1 sequence (Q96CH1 whole entry): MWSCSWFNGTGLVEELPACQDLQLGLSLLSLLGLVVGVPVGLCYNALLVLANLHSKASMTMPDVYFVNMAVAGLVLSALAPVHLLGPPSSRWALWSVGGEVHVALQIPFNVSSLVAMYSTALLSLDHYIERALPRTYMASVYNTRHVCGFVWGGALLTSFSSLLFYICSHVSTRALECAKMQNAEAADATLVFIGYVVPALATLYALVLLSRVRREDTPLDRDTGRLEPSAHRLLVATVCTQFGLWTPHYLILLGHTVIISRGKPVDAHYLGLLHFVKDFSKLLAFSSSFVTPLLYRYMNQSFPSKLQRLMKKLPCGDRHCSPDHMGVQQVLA

changes in cFos expression (KATOIII cells transfected with GPR107 siRNA (control)): increase in cFos
changes in cFos expression (KATOIII cells transfected with GPR146 siRNA (GPR146 compromised), FIG. 6): failed to respond
changes in cFos expression (KATOIII cells transfected with Vehicle (Lipofectamine 2000 alone, no siRNA)): increase in cFos
changes in cFos expression (KATOIII cells transfected with sGFPO siRNA (control)): increase in cFos
Substance: C-peptide
